According to patent publication US7417045B2, “Heterocyclic substituted pyridine or phenyl compounds with CXCR3 antagonist activity” (Schering Corporation, priority 2005, dated 2008):

What follows are compounds tested against T1, human CXCR3 (N-delta 4) (Homo sapiens, UniProt P49682) (assay: Human CXCR3 (N-delta 4) Scintillation Proximity Assay (SPA), [125I] IP-10 binding). Details: IC50 rating; [125I] IP-10 displacement, Ba/F3-hCXCR3 (N-delta 4) membranes.
T1 construct: CD8 leader (N); Flag tag; expressed in transfected cells; membranes
T1 sequence (P49682 5-368 limits assumed): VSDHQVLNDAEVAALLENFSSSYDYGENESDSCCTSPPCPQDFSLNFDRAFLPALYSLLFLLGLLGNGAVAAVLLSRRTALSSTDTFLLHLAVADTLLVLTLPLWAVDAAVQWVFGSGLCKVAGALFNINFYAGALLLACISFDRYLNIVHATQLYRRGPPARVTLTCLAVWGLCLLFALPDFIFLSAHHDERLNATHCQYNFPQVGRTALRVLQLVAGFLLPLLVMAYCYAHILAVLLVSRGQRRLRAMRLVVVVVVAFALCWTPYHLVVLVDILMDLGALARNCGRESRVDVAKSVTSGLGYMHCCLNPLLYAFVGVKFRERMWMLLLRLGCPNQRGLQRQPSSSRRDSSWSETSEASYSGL
Description: The inventive compounds can readily be evaluated to determine activity at The CXCR3 receptors by known methods, such as, for example, Development of Human CXCR3 (N-delta 4) Binding Assay.
Cloning and Expression of Human CXCR3 (N-Delta 4):
The DNA encoding human CXCR3 was cloned by PCR using human genomic DNA (Promega, Madison, Wis.) as a template. The PCR primers were designed based on the published sequence of human orphan receptor GPR9 (1) with incorporated restriction sites, a Kozak consensus sequence, CD8 leader and Flag tag. The PCR product was subcloned into the mammalian expression vector pME18Sneo, a derivative of the SR-alpha expression vector (designated as pME18Sneo-hCXCR3 (N-delta 4).
IL-3-dependent mouse pro-B cells Ba/F3 were transfected by electroporation in 0.4 ml Dulbecco's PBS containing 4×10^6 cells with 20 μg of pME18Sneo-hCXCR3 (N-delta 4) plasmid DNA. Cells were pulsed at 400 Volts, 100 OHMs, 960 μFd. The transfected cells were under selection with 1 mg/ml G418 (Life Technologies, Gaithersburg, Md.). G418-resistant Ba/F3 clones were screened for CXCR3 expression by specific binding of [^125I] IP-10 (NEN Life Science Products, Boston, Mass.).
Preparation of Ba/F3-hCXCR3 (N-Delta 4) Membranes
Ba/F3 cells expressing human CXCR3 (N-delta 4) were pelleted and resuspended in the lysis buffer containing 10 mM HEPES, pH 7.5 and Complete® protease inhibitors (1 tablet per 100 ml) (Boehringer Mannheim, Indianapolis, Ind.) at a cell density of 20×10^6 cells per ml. After 5 minutes incubation on ice, cells were transferred to 4639 cell disruption bomb (Parr Instrument, Moline, Ill.) and applied with 1,500 psi of nitrogen for 30 minutes on ice. Large cellular debris was removed by centrifugation at 1,000× g. Cell membrane in the supernatant was sedimented at 100,000× g. The membrane was resuspended in the lysis buffer supplemented with 10% sucrose and stored at −80° C. Total protein concentration of the membrane was determined by BCA method from Pierce (Rockford, Ill.).
Human CXCR3 (N-Delta 4) Scintillation Proximity Assay (SPA)
For each assay point, 2 μg of membrane was preincubated for 1 hr with 300 μg wheat germ agglutinin (WGA) coated SPA beads (Amersham, Arlington Heights, Ill.) in the binding buffer (50 mM HEPES, 1 mM CaCl2, 5 mM MgCl2, 125 mM NaCl, 0.002% NaN3, 1.0% BSA) at room temperature. The beads were spun down, washed once, resuspended in the binding buffer and transferred to a 96-well Isoplate (Wallac, Gaithersburg, Md.). 25 pM of [^125I] IP-10 with tested compounds in a series of titration were added to start the reaction. After 3 hr reaction at room temperature, the amount of [^125I] IP-10 bound to the SPA beads was determined with a Wallac 1450 Microbeta counter.

Row | IC50 | SMILES
1 | 25 to 100 nM | CC[C@H]1CN(c2ncc(C3=NCCN3)cc2Cl)CCN1C1CCN(C(=O)c2ccc(C#CC(C)(C)NC(=O)OC(C)(C)C)cc2)CC1 [Compound 123]
2 | > 100 nM | CC[C@H]1CN(c2ncc(-c3ncc[nH]3)cc2Cl)CCN1[C@H]1CCN(Cc2ccc(Cl)cc2C(=O)NC)C[C@@H]1O [Compound 172]
3 | < 25 nM | CC[C@H]1CN(c2ncc(-c3nc4cc(F)ccc4[nH]3)cc2Cl)CCN1C1CCN(Cc2ccc(Cl)cc2F)CC1 [Compound 96]
4 | < 25 nM | CC[C@H]1CN(c2ncc(-c3ncc[nH]3)cc2Cl)CCN1C1CCN(CCCC(=O)c2ccc(Cl)cc2)CC1 [Compound 83]
5 | > 100 nM | CC[C@H]1CN(c2ncc(-c3ncc[nH]3)cc2Cl)CCN1C1CCN(Cc2ccc(C#CC(C)(C)N)cc2)CC1 [Compound 134]
6 | > 100 nM | CC[C@H]1CN(c2ncc(C3=NCCN3C(=O)c3ccc(Cl)cc3)cc2Cl)CCN1C1CCN(C(=O)c2ccc(Cl)cc2)CC1 [Compound 146]
7 | > 100 nM | CC[C@H]1CN(c2ncc(C3=NCCN3)cc2Cl)CCN1C1CCN(Cc2ccc(C#CC(C)(C)NS(=O)(=O)NC(=O)OC(C)(C)C)cc2)CC1 [Compound 147]
8 | 25 to 100 nM | CC[C@H]1CN(c2ncc(-c3nccn3S(C)(=O)=O)cc2Cl)CCN1C1CCN(Cc2ccc(Cl)cc2F)CC1 [Compound 121]
9 | < 25 nM | CC[C@H]1CN(c2ncc(-c3ncc[nH]3)cc2Cl)CCN1C1CCN(C(=O)c2ccc(C#CCOC)cc2)CC1 [Compound 92]
10 | 25 to 100 nM | CC[C@H]1CN(c2ncc(C3=NCCN3)cc2Cl)CCN1C1CCN(C(=O)c2ccc(C#CC(C)(C)O)cc2)CC1 [Compound 104]
11 | > 100 nM | CC[C@H]1CN(c2ncc(-c3ncon3)cc2Cl)CCN1C1CCN(Cc2ccc(Cl)cc2F)CC1 [Compound 144]
12 | 25 to 100 nM | CC[C@H]1CN(c2ncc(-c3ncc[nH]3)cc2Cl)CCN1C1(C)CCN(C(C(=O)OC)c2ccc(Cl)cc2)CC1 (some centres unmarked) [Compound 128]
13 | 25 to 100 nM | CC[C@H]1CN(c2ncc(-c3ncc[nH]3)cc2Cl)CCN1C1CCN([C@H](C(=O)OC)c2ccc(Br)cc2)CC1 [Compound 127]
14 | > 100 nM | CC[C@H]1CN(c2ncc(-c3ncc[nH]3)cc2Cl)CCN1C1CCN([C@H](C(=O)NCC(F)(F)F)c2ccc(Cl)cc2)CC1 [Compound 155]
15 | > 100 nM | CC[C@H]1CN(c2ncc(-c3ncco3)cc2Cl)CCN1C1CCN(Cc2ccc(Cl)cc2F)CC1 [Compound 140]
16 | > 100 nM | CCOC1(C)NN=C(c2cnc(N3CCN(C4CCN(C(=O)c5ccc(Br)cc5)CC4)[C@@H](CC)C3)c(Cl)c2)O1 (some centres unmarked) [Compound 158]
17 | > 100 nM | CC[C@H]1CN(c2ncc(-c3ncc[nH]3)cc2Cl)CCN1C1CCN(C(=O)C2(c3ccc(Cl)cc3)CC2)CC1 [Compound 154]
18 | < 25 nM | CC[C@H]1CN(c2ncc(-c3ncc[nH]3)cc2Cl)CCN1C1CCN([C@H](C(N)=O)c2ccc(Cl)cc2)CC1 [Compound 89]
19 | > 100 nM | CC[C@H]1CN(c2ncc(-c3nnn[nH]3)cc2Cl)CCN1C1CCN(Cc2ccc(Cl)cc2F)CC1 [Compound 169]
20 | > 100 nM | CC[C@H]1CN(c2ncc(-c3ncc[nH]3)cc2Cl)CCN1C1CCN(C(=O)c2ccc(-n3c(C)ccc3C)cc2)CC1 [Compound 136]
21 | > 100 nM | CC[C@H]1CN(c2ncc(-c3ncc[nH]3)cc2Cl)CCN1C1CCN(Cc2ccc(C(N)=O)cc2)CC1 [Compound 148]
22 | < 25 nM | CC[C@H]1CN(c2ncc(-c3ncc[nH]3)cc2Cl)CCN1C1CCN(CCC(=O)c2ccc(Cl)cc2)CC1 [Compound 95]
23 | > 100 nM | CC[C@H]1CN(c2ncc(-c3ncc[nH]3)cc2Cl)CCN1C1CCN([C@H](C(=O)NCC2CC2)c2ccc(Cl)cc2)CC1 [Compound 159]
24 | > 100 nM | CC[C@H]1CN(c2ncc(-c3ncc[nH]3)cc2Cl)CCN1C1CCN(C(=O)c2ccc(C#CC(C)(C)NS(N)(=O)=O)cc2)CC1 [Compound 168]
25 | < 25 nM | CC[C@H]1CN(c2ncc(-c3ncc[nH]3)cc2Cl)CCN1C1CCN([C@@H](C(=O)N(C)C)c2ccc(Cl)cc2)CC1 [Compound 97]
26 | > 100 nM | CC[C@H]1CN(c2ncc(-c3ncc[nH]3)cc2Cl)CCN1C1CCN(Cc2ccc3[nH]ccc3c2)CC1 [Compound 138]
27 | 25 to 100 nM | CC[C@H]1CN(c2ncc(-c3ncc[nH]3)cc2Cl)CCN1C1CCN(Cc2ccc(C#CC(C)(C)NS(N)(=O)=O)cc2)CC1 [Compound 114]
28 | < 25 nM | CC[C@H]1CN(c2ncc(C3=NCCN3)cc2Cl)CCN1C1CCN(Cc2ccc(Cl)cc2C(=O)NCCO)CC1 [Compound 94]

Continued, compound first:

Row | SMILES | IC50
29 | CC[C@H]1CN(c2ncc(-c3ncc[nH]3)cc2Cl)CCN1C1CCN(Cc2ccc(-c3ccccc3)cc2)CC1 [Compound 37] | < 25 nM
30 | CC[C@H]1CN(c2ncc(-c3ncc[nH]3)cc2Cl)CCN1C1CCN(Cc2ccc(Cl)cc2F)CC1 [Compound 4] | < 25 nM
31 | CC[C@H]1CN(c2ncc(C3=NCCN3)cc2Cl)CCN1C1CCN(Cc2ccc(C#CC(C)(C)O)cc2)CC1 [Compound 54] | < 25 nM
32 | CC[C@H]1CN(c2ncc(-c3ncc[nH]3)cc2Cl)CCN1C1CCN(C(=O)c2ccc(-n3cccc3)nc2)CC1 [Compound 81] | < 25 nM
33 | CC[C@H]1CN(c2ncc(C3=NCCN3)cc2Cl)CCN1C1CCN(C(C(=O)OC)c2ccc(Cl)cc2)CC1 (some centres unmarked) [Compound 63] | < 25 nM
34 | CCOC(CNC(=N)c1cc(Cl)ccc1CN1CCC(N2CCN(c3ncc(-c4ncc[nH]4)cc3Cl)C[C@@H]2CC)CC1)OCC [Compound 21] | < 25 nM
35 | CC[C@H]1CN(c2ncc(C3=NCCN3)cc2Cl)CCN1C1CCN(Cc2ccc(Cl)cc2C(=O)OC)CC1 [Compound 61] | < 25 nM
36 | CC[C@H]1CN(c2ncc(-c3nnc[nH]3)cc2Cl)CCN1C1CCN(Cc2ccc(Cl)cc2F)CC1 [Compound 69] | < 25 nM
37 | CC[C@H]1CN(c2ncc(-c3ncc[nH]3)cc2Cl)CCN1C1CCN(Cc2ccc(Cl)cc2)CC1 [Compound 1] | < 25 nM
38 | CC[C@H]1CN(c2ncc(-c3ncc[nH]3)cc2Cl)CCN1C1CCN([C@H](C)c2ccc(Cl)cc2)CC1 [Compound 5] | < 25 nM
39 | CC[C@H]1CN(c2ncc(C3=NCCN3)cc2Cl)CCN1C1CCN(C(CO)c2ccc(Cl)cc2)CC1 (some centres unmarked) [Compound 15] | < 25 nM
40 | CC[C@H]1CN(c2ncc(-c3ncc[nH]3)cc2Cl)CCN1C1CCN([C@@H](C)c2ccc(Cl)cc2)CC1 [Compound 30] | < 25 nM
41 | CC[C@H]1CN(c2ncc(C3=NCCN3)cc2Cl)CCN1C1CCN(Cc2ccc(Cl)cc2F)CC1 [Compound 26] | < 25 nM
42 | CC[C@H]1CN(c2ncc(-c3ncc[nH]3)cc2Cl)CCN1C1CCN(C(=O)c2ccc(C#N)nc2)CC1 [Compound 68] | < 25 nM
43 | CC[C@H]1CN(c2ncc(-c3ncc[nH]3)cc2Cl)CCN1C1CCN(C(=O)c2ccc(Cl)cc2)CC1 [Compound 47] | < 25 nM
44 | CC[C@H]1CN(c2ncc(-c3ncc[nH]3)cc2Cl)CCN1C1CCN(C(CO)c2ccc(Cl)cc2)CC1 (some centres unmarked) [Compound 18] | < 25 nM
45 | CC[C@H]1CN(c2ncc(-c3ncc[nH]3)cc2Cl)CCN1C1CCN(Cc2ccc(Cl)cc2-c2ncon2)CC1 [Compound 48] | < 25 nM
46 | CC[C@H]1CN(c2ncc(-c3ncc[nH]3)cc2Cl)CCN1C1CCN(Cc2ccc(Cl)cc2C(=O)NC)CC1 [Compound 53] | < 25 nM
47 | CC[C@H]1CN(c2ncc(-c3ncc[nH]3)cc2Cl)CCN1C1CCN(Cc2ccc(Cl)cc2C(C)(C)O)CC1 [Compound 31] | < 25 nM
48 | CC[C@H]1CN(c2ncc(-c3ncc[nH]3)cc2Cl)CCN1C1CCN(C(=O)c2ccc(Cl)cc2C#N)CC1 [Compound 62] | < 25 nM
49 | CC[C@H]1CN(c2ncc(C3=NCCN3)cc2Cl)CCN1C1CCN(Cc2ccc(Cl)cc2C(C)(C)O)CC1 [Compound 44] | < 25 nM

Same assay, conditions: [125I] IP-10 displacement, Ba/F3-hCXCR3 (N-delta 4) membranes

Row | IC50 | SMILES
50 | 0.2 nM | CC[C@H]1CN(c2ncc(-c3ncc[nH]3)cc2Cl)CCN1C1CCN(Cc2ccc(Cl)cc2)CC1 [Compound 1]
